# According to ChEMBL document CHEMBL3286145, “Evaluation of the antiprion activity of 6-aminophenanthridines and related heterocycles” (Eur J Med Chem, 2014):
# pIC50: −log10 of the molar value.
# Assay: Ex vivo antiprion activity against sheep 127S scrapie prion protein infected in mouse MovS6 cells assessed as PK digestion resistant-PrPSc accumulation after 6 days by immunoblot analysis
# Type: cell-based
# Conditions: Ovis aries, MovS6, 144 h
row,Compound,pIC50
1,Nc1nc2ccccc2c2cc(F)ccc12,5.30
2,Nc1nc2ccccc2c2ccc([N+](=O)[O-])cc12,4.70
3,Nc1nc2ccccc2c2ccc(F)cc12,4.82
4,Nc1nc2ccccc2c2ccccc12,> 5.30
5,[N-]=[N+]=Nc1ccc2c(c1)c(N)nc1ccccc12,5.00
6,Nc1nc2ccccc2c2c1CC=CC2,5.74
7,Nc1cccc2c1c(N)nc1ccccc12,4.52
8,COc1cc(OC)c2nc(N)c3ccccc3c2c1,> 5.74
9,Nc1nc2ccccc2c2cc([N+](=O)[O-])ccc12,> 5.30
10,Nc1nc2ccccc2c2ccc(C(F)(F)F)cc12,5.00
11,Nc1nc2ccccc2c2c1CCCC2,> 5.30
12,Nc1nc2ccccc2c2cccc(F)c12,< 4.70
